# Assay results as given in patent publication US20060229321A1, “Rosuvastatin in pre demented states” (priority 2001, published 2006).
# Structures can show the parent of a compound that is named as a salt.
# Experiments:
# [1] = treatment of hypercholesterolemia; Am J. Med. 2000:108:538-547; cited from earlier work
# [2] = tested on: eNOS; assay: eNOS expression and activity in mice after subcutaneous rosuvastatin; format: in vivo; conditions: mouse, subcutaneous 2 or 20 mg/kg for 14 days
# Excerpt: (§1) The studies were generally carried out according to the methods set forth in M. Endres et al., Stroke protection by 3-hydroxy-3-methylglutaryl (HMG)-CoA reductase inhibitors mediated by endothelial nitric oxide synthase, Proc. Natl. Acad. Sci. USA, 95:8880-8885 (1998). In many cases dementia is known to result from the cumulative neurodegenerative effects of strokes. These can be major strokes or sub-clinical strokes, and result in a heterogeneous group of dementias commonly called vascular dementia (VAD). In this study rosuvastatin protected the brain in mice from cerebral ischemia A mechanism by which rosuvastatin may prevent dementia is by protecting the brain from cerebral ischemia.
# [3] = tested on: cerebral ischemia caused by middle-cerebral artery occlusion (MCAO); assay: Infarct volume after middle-cerebral artery occlusion (MCAO) in mice; format: in vivo; conditions: mouse, subcutaneous 2 or 20 mg/kg for 14 days before MCAO
# Excerpt: as §1
# [4] = tested on: cholesterol; conditions: cited from earlier work
Compound,performance on neuropsychological tests of attention and psychomotor speed [1],activity of eNOS [2],expression of eNOS [2],volume of infarct resulting from subsequent cerebral ischemia (MCAO) [3],reducing cholesterol in patients versus other HMG-CoA reductase inhibitors [4]
CC[C@H](C)C(=O)O[C@H]1C[C@@H](C)C=C2C=C[C@H](C)[C@H](CC[C@@H]3C[C@@H](O)CC(=O)O3)[C@H]21 [Lovastatin],small performance decrements,,,,
"CC(C)c1nc(N(C)S(C)(=O)=O)nc(-c2ccc(F)cc2)c1/C=C/[C@@H](O)C[C@@H](O)CC(=O)O [rosuvastatin, bis[(E)-7-[4-(4-fluorophenyl-6-isopropyl-2-[methyl(methylsulfonyl)amino]pyrimidin-5-yl]-(3R,5S)3,5-dihydroxyhept-6-enoic acid]calcium salt]",,increased,increased,reduced,superior
